Results taken from US12344879B2, “Transgenic bacteria with expanded amino acid usage and nucleic acid molecules for use in the same” (BOARD OF REGENTS, THE UNIVERSITY OF TEXAS SYSTEM, priority 2015, dated 2025).
Values joined by “and” are separate entries in the source; they are usually repeats but may differ in a detail not shown here. Equal values may be shown once.

System: E. coli dihydrofolate reductase (DHFR) position 39
Assay: Selenocysteine incorporation into DHFR P39X by intact mass spectrometry
Set-up: species or system E. coli RTΔA.2
Conditions: for serine incorporation in DHFR: mass spectrometry; for selenocysteine incorporation efficiency in DHFR: peak areas of the mass spectrum
Text: To further enhance the efficiency of selenocysteine incorporation, a number of steps were taken to improve the levels of Sec-tRNA^Sec relative to Ser-tRNA^Sec, including increasing the level of SelA, decreasing the gene dose of tRNA^SecUx, and co-expressing a phosphoseryl-tRNA^Sec kinase (see Example 2 below). […] In order to further validate selenocysteine incorporation, the Pseudomonas aeruginosa metalloprotein azurin was also expressed with its essential cysteine (C112) replaced by selenocysteine and the human selenoprotein cellular glutathione peroxidase (GPx-1) (FIGS. 6a-6e and 8a-8b). For azurin, this chemical change had previously proven possible only through expressed protein ligation,^22 the essential cysteine could now be biologically replaced with selenocysteine with good efficiency as measured by mass spectrometry of the intact protein.
RTΔA.2 transformants containing pDHFR-P39X-AU and pRSF-eSelAK were cultured ON in LB medium containing 100 μg·mL^−1 ampicillin, 50 μg·mL^−1 kanamycin and 1 μM Na2SeO3. Overnight cultures were diluted 1/500 in a final volume of 2 L LB medium containing 50 μg·mL^−1 ampicillin, 25 μg·mL^−1 kanamycin and 5 μM Na2SeO3 and incubated with agitation for 24 hours at 37° C. Cells were harvested by centrifugation at 8000×g for 10 min and resuspended in 20 mL of wash buffer (100 mM Tris, 150 mM NaCl, 1 mM EDTA at pH 8.0) with protease inhibitor cocktail (cOmplete, mini EDTA free, Roche) and lysozyme at 1 mg·mL^−1. Following a 20 min incubation at 4° C. cells were lysed by sonication (Model 500, Fisher Scientific) and clarified by three times by centrifugation at 35000×g for 30 min. Lysate was passed through a 0.2 µm filter and seleno-DHFR recovered using Strep-Tactin affinity chromatography following the manufacturer's instructions (GE Healthcare). Eluate was concentrated to 3 mL and dialyzed against 50 mM NH4Ac pH 6.5 prior to the isolation of seleno-DHFR by size exclusion FPLC (ÄKTA, GE Healthcare). Seleno-DHFR was produced using tRNA^SecUx with a yield of 68 μg·L^−1 and 100% incorporation efficiency. Seleno-DHFR was produced using tRNA^UTu with a yield of 131 μg·L^−1 and 38.1% incorporation efficiency. DHFR containing serine at position 39 was produced with a yield of 225 μg·L^−1.
Intact protein samples were analyzed using methods described previously (Ellefson et al., 2014). Azurin, DHFR and GPx-1 samples were buffer exchanged into LC-MS grade water using 10 kDa molecular weight cutoff filters. […] UVPD mass spectra were also deconvoluted using Xtract and then analyzed using ProsightPC 3.0. […] Incorporation efficiencies were calculated by dividing the area of the modified protein peak by the summed areas of the unmodified protein peak and the modified protein peak. […]

| Substance | serine incorporation in DHFR | selenocysteine incorporation efficiency in DHFR |
| --- | --- | --- |
| tRNA^SecUx: Evolved E. coli tRNA^Sec variant with the G7-C66:U49-G65:C50-U64 antideterminant sequence and CUA anticodon | no detectable background | ~100% |
| tRNA^UTu (GGAAGATGTGGCCGAGCGGTTGAAGGCACCGGT; expressed or natural sequence) | 62% | 38% and 38.1% |
